Experimental data reported in US20220259212A1, “INHIBITORS OF INDOLEAMINE 2,3-DIOXYGENASE AND/OR TRYPTOPHAN 2,3-DIOXYGENASE” (Idorsia Pharmaceuticals Ltd, priority 2019, published 2022).

Experiments:
IDO1 in SKOV3 cells = target: T1, IDO1 in SKOV3 cells (Homo sapiens, UniProt P14902); test: Cell-based IDO inhibitory activity in IFNγ-stimulated SKOV3 cells (NFK + kynurenine by LCMS); conditions: IFNγ 50 ng/ml, 200 uM L-tryptophan, 24 hours
T1 construct: SKOV3 cells (NCI, No. 0503405) which upregulate IDO1 after stimulation with IFNγ; host or cells: SKOV3 cells stimulated with IFNγ
T1 sequence (P14902 whole entry): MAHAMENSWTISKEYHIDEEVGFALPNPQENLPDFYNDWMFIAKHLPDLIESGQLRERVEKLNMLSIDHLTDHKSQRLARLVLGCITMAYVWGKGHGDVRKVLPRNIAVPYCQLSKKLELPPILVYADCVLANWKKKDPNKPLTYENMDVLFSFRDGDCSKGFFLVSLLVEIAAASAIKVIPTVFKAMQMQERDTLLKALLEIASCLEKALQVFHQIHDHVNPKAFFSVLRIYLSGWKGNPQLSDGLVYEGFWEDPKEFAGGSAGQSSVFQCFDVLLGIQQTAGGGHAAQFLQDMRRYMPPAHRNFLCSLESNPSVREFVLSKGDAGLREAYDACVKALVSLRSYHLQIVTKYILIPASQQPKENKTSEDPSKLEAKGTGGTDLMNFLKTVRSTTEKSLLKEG
Source text: 3) Testing Compounds for IDO/TDO Inhibitory Activity and Toxicity in Cell-Based Assays
SW48 cells (ATCC, CCL-231) are used to measure compounds for TDO inhibitory activity and are routinely maintained in DMEM high glucose/GlutaMAX™/pyruvate 90% (v/v), FCS 10% (v/v), Penicilin/streptomycin 1% (v/v). SKOV3 cells (NCI, No. 0503405) which upregulate IDO1 after stimulation with IFNγ are used to measure compounds for IDO inhibitory activity. SKOV3 cells are routinely maintained in RPMI 90% (v/v), FCS 10% (v/v), Penicilin/streptomycin 1% (v/v). SW48 or SKOV3 cells are seeded in 384 well plates at a density of 8000 cells in 45 ul per well or 4000 cells in 45 ul per well, respectively. Plates are incubated at 37° C./5% CO2 for 24 hours. On the next day, 10 ul compound in serial dilutions (tested concentration range 10 uM-40 nM) and 200 uM L-tryptophan are added (SKV03 receive in addition IFNγ at a final concentration of 50 ng/ml). After 24 hours of incubation at 37° C./5% CO2, 3 ul of the supernatant per well is transferred to 25 ul H2O per well in a 384 deep well plate and 25 ul of the supernatant per well is transferred to waste. The SKOV3 and SW48 cell plates with 25 ul supernatant per well remaining are used to measure viability (see below). The 384 deep well plate containing 3 ul supernatant and 25 ul H2O per well are further processed for LCMS: After the addition of 100 ul L-tryptophan-(indole-d5) (Sigma 615862) at 200 nM in methanol, the 384 deep well plates are centrifuged for 10 minutes at 3220×g at 4° C., 75 ul H2O is added per well and plates centrifuged again for 10 minutes at 3220×g at 4° C. N-formylkynurenine and kynurenine are quantified by LCMS, normalized to the internal standard L-tryptophan-(indole-d5) and the sum is calculated. Samples with 0.2% DMSO (0% effect) and a TDO/IDO inhibitor (100% effect) are used as control samples to set the parameters for the non-linear regression necessary for the determination of the IC50 for each compound. For each compound concentration the percentage of activity compared to 0% and 100% effect is calculated as average±STDEV (each concentration measured in duplicate). IC50 values and curves are generated with XLfit software (IDBS) using Dose-Response One Site model 203. The calculated IC50 values may fluctuate depending on the daily cellular assay performance. Fluctuations of this kind are known to those skilled in the art. When compounds are measured multiple times, mean values are given.

[1] = target: T2, Recombinant full-length human IDO1 (Homo sapiens, UniProt P14902); test: IDO1 enzymatic assay (NFK quantified by LCMS); format: biochemical; conditions: 2 nM enzyme, 5 μM L-tryptophan, 30 min pre-incubation, pH6.5; mean if measured multiple times; read-out: hIDO activity (IC50 in nM)
T2 construct: Recombinant full-length human IDO1 with a N-terminal hexahistidine tag; hexahistidine (N); made in house; host or cells: E. coli
T2 sequence (P14902 whole entry): as above
Protocol: 1) Testing Compounds for IDO Inhibitory Activity in an IDO1 Enzymatic Assay:
Recombinant full-length human IDO1 with a N-terminal hexahistidine tag expressed in E. coli and purified to homogeneity is incubated at a final concentration of 2 nM in assay buffer consisting of 37.5 mM phosphate buffer at pH6.5 supplemented with 10 mM ascorbic acid, 0.45 μM methylene blue, 50 U/ml catalase, 0.01% BSA, and 0.01% Tween 20 (protocol modified from Seegers et al, JBS 2014). Example compounds are serially diluted in DMSO, further diluted in phosphate buffer, and added to the enzyme at final concentrations ranging from 10 μM to 0.5 nM. The final DMSO concentration is 0.6%. Following a pre-incubation of 30 minutes at RT, the reaction is started by the addition of L-tryptophan at a final concentration of 5 μM in assay buffer. After 30 minutes of incubation at RT, 3 μL of the 20 μl reaction mixture are transferred to a 384 deep well plate containing 25 μL of deionized water. 100 μl of 200 nM L-Tryptophan-(indole-d5) in cold 100% methanol are added followed by a 10 minutes centrifugation at 3220×g at 4° C. An additional 75 μL of deionized water are then added followed by a 10 minutes centrifugation at 3220×g at 4° C. The product of the reaction N′-Formylkynurenine (NFK) is quantified by LCMS and normalized to the L-Tryptophan-(indole-d5) signal. Samples with 0.6% DMSO (0% effect) and a TDO/IDO inhibitor (100% effect) are used as control samples to set the parameters for the non-linear regression necessary for the determination of the half-maximal inhibitory concentration (IC50) for each compound. For each compound concentration the percentage of activity compared to 0% and 100% effect is calculated as average±STDEV (each concentration measured in duplicate). IC50 values and curves are generated with XLfit software (IDBS) using Dose-Response One Site model 203 (four parameter logistic curve model). The calculated IC50 values may fluctuate depending on the daily assay performance. Fluctuations of this kind are known to those skilled in the art. When compounds are measured multiple times, mean values are given.

[2] = target: T3, Recombinant human TDO comprising amino acids 19-407 (Homo sapiens, UniProt P48775); test: TDO2 enzymatic assay (NFK quantified by LCMS); format: biochemical; conditions: 15 nM enzyme, 200 μM L-tryptophan, 30 min pre-incubation, pH7; mean if measured multiple times; read-out: hTDO activity (IC50 in nM)
T3 construct: human TDO comprising amino acids 19-407; hexahistidine (N); made in house; host or cells: E. coli
T3 sequence (P48775 19-406 limits assumed): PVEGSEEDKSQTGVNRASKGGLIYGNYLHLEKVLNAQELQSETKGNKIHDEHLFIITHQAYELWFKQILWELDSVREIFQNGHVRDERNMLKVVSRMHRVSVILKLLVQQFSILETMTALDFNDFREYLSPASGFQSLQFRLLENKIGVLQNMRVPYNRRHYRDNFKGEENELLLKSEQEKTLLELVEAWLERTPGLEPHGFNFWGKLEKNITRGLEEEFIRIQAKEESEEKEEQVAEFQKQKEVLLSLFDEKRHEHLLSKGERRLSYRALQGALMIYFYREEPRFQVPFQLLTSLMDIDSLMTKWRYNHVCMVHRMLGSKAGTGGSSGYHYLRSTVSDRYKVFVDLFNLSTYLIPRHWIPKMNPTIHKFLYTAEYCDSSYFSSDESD
Protocol: 2) Testing Compounds for TDO Inhibitory Activity in a TDO2 Enzymatic Assay:
Recombinant human TDO comprising amino acids 19-407 with a N-terminal hexahistidine tag expressed in E. coli and purified to homogeneity is incubated at a final concentration of 15 nM in assay buffer consisting of 75 mM phosphate buffer at pH7 supplemented with 100 μM ascorbic acid, 50 U/ml Catalase, 0.01% BSA, and 0.01% Tween 20 (protocol modified from Seegers et al, JBS 2014). Example compounds are serially diluted in DMSO, further diluted in phosphate buffer, and added to the reaction mixture at final concentrations ranging from 10 μM to 0.5 nM. The final DMSO concentration is 0.6%. Following a pre-incubation of 30 minutes at RT, the reaction is started by the addition of L-tryptophan at a final concentration of 200 μM in assay buffer. After 30 minutes of incubation at RT, 3 μL of the reaction mixture are transferred to a 384 deep well plate containing 25 μL of deionized water. 100 μl of 200 nM L-Tryptophan-(indole-d5) in cold 100% methanol are added followed by a 10 minutes centrifugation at 3220×g at 4° C. An additional 75 μL of deionized water are then added followed by a 10 minutes centrifugation at 3220×g at 4° C. The product of the reaction N′-Formylkynurenine (NFK) is quantified by LCMS and normalized to the L-Tryptophan-(indole-d5) signal. Samples with 0.6% DMSO (0% effect) and a TDO/IDO inhibitor (100% effect) are used as control samples to set the parameters for the non-linear regression necessary for the determination of the half-maximal inhibitory concentration (IC50) for each compound. For each compound concentration the percentage of activity compared to 0% and 100% effect is calculated as average±STDEV (each concentration measured in duplicate). IC50 values and curves are generated with XLfit software (IDBS) using Dose-Response One Site model 203 (four parameter logistic curve model). The calculated IC50 values may fluctuate depending on the daily assay performance. Fluctuations of this kind are known to those skilled in the art. When compounds are measured multiple times, mean values are given.

Structure (SMILES)	IC50 (IDO1 in SKOV3 cells) [nM]	IC50 [1] [nM]	IC50 [2] [nM]
OC(c1cn(-c2ccccc2)nn1)c1c(Cl)ccc2cncn12 (racemic) [Example 1, rac-(6-Chloro-imidazo[1,5-a]pyridin-5-yl)-(1-phenyl-1H-[1,2,3]triazol-4-yl)-methanol]	246	9.6	> 10200
Cc1ccc2cncn2c1C(O)c1cn(-c2ccccc2)nn1 (racemic) [Example 2, rac-(6-Methyl-imidazo[1,5-a]pyridin-5-yl)-(1-phenyl-1H-[1,2,3]triazol-4-yl)-methanol]	225	6.17	> 10200
OC(c1cn(-c2ccccc2)nn1)c1c(C2CC2)ncc2cncn12 (racemic) [Example 3, rac-(6-Cyclopropyl-imidazo[1,5-a]pyrazin-5-yl)-(1-phenyl-1H-[1,2,3]triazol-4-yl)-methanol]	470	41	> 10200
COc1ccc(-n2nnc(C(O)c3c(Cl)ccc4cncn34)c2Cl)cc1 (racemic) [Example 51, rac-(6-Chloro-imidazo[1,5-a]pyridin-5-yl)-[5-chloro-1-(4-methoxy-phenyl)-1H-[1,2,3]triazol-4-yl]-methanol]	145		7040
Cc1c(C(O)c2c(C3CC3)ncc3cncn23)nnn1-c1ccc(F)cc1F (racemic) [Example 54, rac-(6-Cyclopropyl-imidazo[1,5-a]pyrazin-5-yl)-[1-(2,4-difluoro-phenyl)-5-methyl-1H-[1,2,3]triazol-4-yl]-methanol]	364		> 10200
Cc1c(C(O)c2c(C3CC3)ncc3cncn23)nnn1-c1ccccc1F (racemic) [Example 57, rac-(6-Cyclopropyl-imidazo[1,5-a]pyrazin-5-yl)-(1-(2-fluoro-phenyl)-5-methyl-1H-[1,2,3]triazol-4-yl-methanol]	333		> 10200
COc1ccc(-n2cc([C@H](O)c3c(C4CC4)ncc4cncn34)nn2)cc1Br [Example 23, (R)-[1-(3-Bromo-4-methoxy-phenyl)-1H-[1,2,3]triazol-4-yl]-(6-cyclopropyl-imidazo[1,5-a]pyrazin-5-yl)-methanol]	51.9	9.61	

Stronger by IC50 (IDO1 in SKOV3 cells), values ahead:

IC50 (IDO1 in SKOV3 cells) [nM]	IC50 [1] [nM]	IC50 [2] [nM]	Structure (SMILES)
42.2	3.7	> 10200	COc1ccc(-n2cc(C(O)c3c(C4CC4)ccc4cncn34)nn2)cc1 (racemic) [Example 4, rac-(6-Cyclopropyl-imidazo[1,5-a]pyridin-5-yl)-[1-(4-methoxy-phenyl)-1H-[1,2,3]triazol-4-yl]-methanol]
10.2		8360	Cc1c(C(O)c2c(Cl)ccc3cncn23)nnn1-c1ccc(OCCC(C)(C)O)c(Cl)c1 (racemic) [Example 49, rac-4-(2-Chloro-4-{4-[(6-chloro-imidazo[1,5-a]pyridin-5-yl)-hydroxy-methyl]-5-methyl-[1,2,3]triazol-1-yl}-phenoxy)-2-methyl-butan-2-ol]
5.41		8200	Cc1c(C(O)c2c(Cl)ccc3cncn23)nnn1-c1ccc(OCCC(C)(C)O)c(F)c1 (racemic) [Example 50, rac-4-(4-{4-[(6-Chloro-imidazo[1,5-a]pyridin-5-yl)-hydroxy-methyl]-5-methyl-[1,2,3]triazol-1-yl}-2-fluoro-phenoxy)-2-methyl-butan-2-ol]
35		> 10200	COc1cc(F)c(-n2nnc(C(O)c3c(C4CC4)ncc4cncn34)c2C)cc1F (racemic) [Example 55, rac-(6-Cyclopropyl-imidazo[1,5-a]pyrazin-5-yl)-[1-(2,5-difluoro-4-methoxy-phenyl)-5-methyl-1H-[1,2,3]triazol-4-yl]-methanol]
18.1		> 10200	O[C@@H](c1cn(-c2cc(F)c(OCC3(F)COC3)cc2F)nn1)c1c(C2CC2)ncc2cncn12 [Example 52, (R)-(6-Cyclopropyl-imidazo[1,5-a]pyrazin-5-yl)-{1-[2,5-difluoro-4-(3-fluoro-oxetan-3-ylmethoxy)-phenyl]-1H-[1,2,3]triazol-4-yl}-methanol]
27.4		> 10200	O[C@@H](c1cn(-c2cc(F)c(OCC3COC3)cc2F)nn1)c1c(C2CC2)ncc2cncn12 [Example 53, (R)-(6-Cyclopropyl-imidazo[1,5-a]pyrazin-5-yl)-{1-[2,5-difluoro-4-(oxetan-3-ylmethoxy)-phenyl]-1H-[1,2,3]triazol-4-yl}-methanol]
29.3		> 10200	CC(C)(O)COc1cc(F)c(-n2cc([C@H](O)c3c(C4CC4)ncc4cncn34)nn2)cc1F [Example 56, 1-(4-{4-[(R)-(6-Cyclopropyl-imidazo[1,5-a]pyrazin-5-yl)-hydroxy-methyl]-[1,2,3]triazol-1-yl}-2,5-difluoro-phenoxy)-2-methyl-propan-2-ol]
